Experimental data reported in patent publication US20120309811A1, “P-GLYCOPROTEIN-SPECIFIC NON-COMPETITIVE PEPTIDE AND PEPTIDOMIMETIC MODULATORS” (UNIVERSITE CLAUDE BERNARD - LYON 1, priority 2009, published 2012).

Tests used:
Type in all cases: cell-based
P-gp [1] = target: T1, P-gp (Homo sapiens, UniProt P08183); assay: Kinetics of inhibition of daunorubicin efflux produced by P-gp (mode of inhibition); conditions: Lineweaver & Burke double reciprocal representation
T1 construct: expressed in transfected cells; host or cells: NIH3T3 (ATCC CRL-1658), stably transfected with retroviral vector pHaMDR1/A
T1 sequence (P08183 whole entry): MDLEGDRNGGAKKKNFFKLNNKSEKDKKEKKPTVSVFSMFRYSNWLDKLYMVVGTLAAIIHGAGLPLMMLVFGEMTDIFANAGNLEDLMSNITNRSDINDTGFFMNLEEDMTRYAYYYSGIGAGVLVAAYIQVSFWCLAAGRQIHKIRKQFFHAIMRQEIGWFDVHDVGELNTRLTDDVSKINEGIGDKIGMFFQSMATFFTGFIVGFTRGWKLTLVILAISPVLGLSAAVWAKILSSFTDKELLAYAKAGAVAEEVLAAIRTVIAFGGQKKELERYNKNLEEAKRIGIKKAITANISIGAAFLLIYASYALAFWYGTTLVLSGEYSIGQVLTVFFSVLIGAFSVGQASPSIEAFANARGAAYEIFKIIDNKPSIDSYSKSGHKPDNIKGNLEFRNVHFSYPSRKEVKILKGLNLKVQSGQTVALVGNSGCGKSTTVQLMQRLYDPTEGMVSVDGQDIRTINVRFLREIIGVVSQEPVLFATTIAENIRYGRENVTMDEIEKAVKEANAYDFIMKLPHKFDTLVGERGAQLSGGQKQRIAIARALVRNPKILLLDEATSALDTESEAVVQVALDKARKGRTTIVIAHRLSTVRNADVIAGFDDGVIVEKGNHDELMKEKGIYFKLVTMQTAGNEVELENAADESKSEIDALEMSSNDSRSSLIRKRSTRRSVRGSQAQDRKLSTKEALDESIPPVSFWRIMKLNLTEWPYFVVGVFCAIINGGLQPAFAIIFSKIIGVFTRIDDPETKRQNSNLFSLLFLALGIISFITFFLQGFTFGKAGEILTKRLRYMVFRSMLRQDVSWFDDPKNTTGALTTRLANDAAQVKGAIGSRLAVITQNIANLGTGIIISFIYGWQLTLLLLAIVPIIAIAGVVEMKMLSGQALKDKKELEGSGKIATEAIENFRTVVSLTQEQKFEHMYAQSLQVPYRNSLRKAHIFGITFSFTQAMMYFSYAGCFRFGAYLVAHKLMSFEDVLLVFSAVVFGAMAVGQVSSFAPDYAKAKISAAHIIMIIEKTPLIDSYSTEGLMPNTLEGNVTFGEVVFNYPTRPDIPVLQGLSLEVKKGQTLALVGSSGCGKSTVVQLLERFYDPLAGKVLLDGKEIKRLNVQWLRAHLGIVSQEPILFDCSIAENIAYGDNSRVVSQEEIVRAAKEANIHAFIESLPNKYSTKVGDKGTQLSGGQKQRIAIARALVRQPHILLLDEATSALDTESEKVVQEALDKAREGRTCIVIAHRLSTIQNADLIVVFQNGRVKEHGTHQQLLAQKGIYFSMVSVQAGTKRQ
Procedure: FIGS. 6A and 6B show the kinetics of inhibition of daunorubicin efflux produced by P-gp, with compound No. 6. The intracellular daunorubicin fluorescence is measured in the presence of increasing concentrations of No. 6, respectively 0 (circles), 0.12 μM (triangles), 0.22 μM (squares), 0.44 μM (diamonds) and 10 μM (upward-pointing triangles), corresponding to 0, 25, 50, 75 and 100% efflux inhibition effectiveness. FIG. 6A: direct representation, FIG. 6B, Lineweaver & Burke double reciprocal representation.
The intracellular concentration of fluorescent daunorubicin is measured at increasing daunorubicin concentrations, in the presence or absence of fixed concentrations of 0, 0.12 μM, 0.22 μm, 0.44 μM and 10 μM of compound No. 6 corresponding to 0%, 25%, 50%, 75% and 100% efflux inhibition effectiveness according to FIG. 3.

P-gp [2] = target: T1, P-gp; assay: Flow cytometry, inhibition of mitoxantrone efflux in NIH3T3 cells expressing P-gp
Excerpt: (§1) The HEK-293 human fibroblast line (ATCC cell collection CRL-1573) is transfected with either BCRP (Robey R. W. et al. 2003, Br. J. Cancer 89(10) 1971-1978, [32]) or ABCC1, cloned into the pcDNA3.1 expression vector (Invitrogen), or with the empty pcDNA3.1 vector. The NIH3T3 cell line (ATCC CRL-1658) was stably transfected with pHaMDR1/A (Cardarelli et al. 1995 Cancer Res 55 1086-1091, [33]), which is a retroviral vector that expresses the wild-type MDR1 protein. The BHK-21 cell line (ATCC CCL-10) was transfected with MRP1 cloned into the pcDNA3.1 expression vector, or the empty pcDNA3.1 vector. The cells are maintained in culture in DMEM glutamax II (Invitrogen) supplemented with 10% of fetal bovine serum and 1% of penicillin/streptomycin. The data are processed with Sigmaplot V11 (http://www.systat.com/), and the equation for mathematical adjustment of the experimental data for calculating the IC50 values: f=a×(1−exp(−b×x)) (a=slope, b=intercept on the y-axis).
(§2) The cells expressing P-gp, BCRP and MRP, and their corresponding controls, are placed in the presence of 10 and 2 μM of mitoxantrone for the first two transporters and of 1 μM of daunorubicin for the 3rd. Substrate accumulation is carried out for 30 minutes at 37° C. in the presence or absence of varied concentrations of the molecules tested, at a final DMSO (dimethyl sulfoxide) concentration of 0.5%. After washing with PBS (phosphate buffered saline), the cells are incubated in medium containing the same concentrations of molecules tested as previously, for 1 h at 37° C. The intracellular fluorescence of mitoxantrone and daunorubicin anticancer agent is measured with the FACscan flow cytometer (Becton Dickinson, Mountain, View, Calif.). The drugs are excited at 488 nm. The emission of mitoxantrone is measured at 650 nm, whereas the emission of daunorubicin is measured at 530 nm. The effectiveness of the molecules tested is expressed by equation 1: % effectiveness=100×(FA−FBG)/(FC−FBG), where FA corresponds to the intracellular level of substrate measured in the cells overexpressing ABCG2 (corresponding to the lowest level of fluorescence in the absence of inhibitor), FC corresponds to the fluorescence in the control cells transfected with the empty vector (and therefore to the maximum accumulation of substrate in the cells) and FBG corresponds to the fluorescence measured in the absence of substrate and in the presence of inhibitor.
(§3) The inhibitory effect of the compounds is quantified by measuring, by flow cytometry, the efflux of an anticancer drug transported by the pump under consideration, i.e. mitoxantrone for P-gp and BCRP and daunorubicin for MRP1. It is compared with that of the reference product, reversin 121. The products are tested at 10 μM, then at 2 μM for those which block at least 80% of the efflux of mitoxantrone, and for some, a more complete concentration range is tested so as to establish the concentration value producing 50% inhibition, IC50, as indicated in FIG. 3.

[3] = system: NIH3T3 cells expressing or not expressing P-gp; assay: Cytotoxicity test (MTT), cell survival after 72 h
Procedure: The cells are seeded in a proportion of 10 000 per well in 96-well plates and incubated for 24 hours at 37° C. under 5% CO2. Varied concentrations of compounds Nos 2, 3, 4, 5 and 6, up to 20 times the IC50, are then added. The cytotoxicity is evaluated colorinnetrically with 3-(4,5-dimethylthiazol-2-yl)-2,5-diphenyltetrazolium bromide (MTT).
Increasing concentrations of compound No. 4 or No. 6 are applied to NIH3T3 cells expressing or not expressing P-gp. The cell survival is measured after 72 h and is expressed as a percentage. At 10 times the half-maximum-effect concentration, these two compounds are not toxic. Above this, the toxicity of compound No. 4 remains negligible, while that of compound No. 6 remains limited.

BCRP = target: T2, BCRP (Homo sapiens, UniProt Q9UNQ0); assay: Flow cytometry, inhibition of mitoxantrone efflux in HEK-293 cells transfected with BCRP; conditions: 10 μM compound
T2 construct: expressed in transfected cells; host or cells: HEK-293 (ATCC CRL-1573), pcDNA3.1 expression vector (Invitrogen)
T2 sequence (Q9UNQ0 1-655): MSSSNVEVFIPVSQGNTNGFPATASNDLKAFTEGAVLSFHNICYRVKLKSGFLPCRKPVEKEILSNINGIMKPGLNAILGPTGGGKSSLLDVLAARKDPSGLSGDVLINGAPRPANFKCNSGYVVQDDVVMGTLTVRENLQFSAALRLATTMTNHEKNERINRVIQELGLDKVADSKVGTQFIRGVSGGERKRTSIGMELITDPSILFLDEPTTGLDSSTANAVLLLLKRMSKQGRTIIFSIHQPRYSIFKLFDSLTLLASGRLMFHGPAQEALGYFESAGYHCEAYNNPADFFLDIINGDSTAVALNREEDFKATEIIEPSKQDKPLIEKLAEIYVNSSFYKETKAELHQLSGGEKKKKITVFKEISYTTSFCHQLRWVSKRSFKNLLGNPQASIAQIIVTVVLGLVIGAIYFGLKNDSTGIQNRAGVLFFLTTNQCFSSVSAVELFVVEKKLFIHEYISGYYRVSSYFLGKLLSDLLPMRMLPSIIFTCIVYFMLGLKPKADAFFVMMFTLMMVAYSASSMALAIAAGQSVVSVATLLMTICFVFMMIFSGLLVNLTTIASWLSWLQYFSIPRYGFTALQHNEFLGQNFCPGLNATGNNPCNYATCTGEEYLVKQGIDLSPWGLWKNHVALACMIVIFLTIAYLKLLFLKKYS
Excerpt: as §1, §2, §3

MRP1 = target: T3, MRP1 (Homo sapiens, UniProt P33527); assay: Flow cytometry, inhibition of daunorubicin efflux in cells transfected with MRP1; conditions: human, probe daunorubicin, 10 μM compound, read-out: % pump inhibition at 10 μM of compound, MRP1
T3 construct: expressed in transfected cells; host or cells: BHK-21 (ATCC CCL-10) with MRP1 in pcDNA3.1; HEK-293 transfected with ABCC1 in pcDNA3.1 is also described
T3 sequence (P33527 whole entry): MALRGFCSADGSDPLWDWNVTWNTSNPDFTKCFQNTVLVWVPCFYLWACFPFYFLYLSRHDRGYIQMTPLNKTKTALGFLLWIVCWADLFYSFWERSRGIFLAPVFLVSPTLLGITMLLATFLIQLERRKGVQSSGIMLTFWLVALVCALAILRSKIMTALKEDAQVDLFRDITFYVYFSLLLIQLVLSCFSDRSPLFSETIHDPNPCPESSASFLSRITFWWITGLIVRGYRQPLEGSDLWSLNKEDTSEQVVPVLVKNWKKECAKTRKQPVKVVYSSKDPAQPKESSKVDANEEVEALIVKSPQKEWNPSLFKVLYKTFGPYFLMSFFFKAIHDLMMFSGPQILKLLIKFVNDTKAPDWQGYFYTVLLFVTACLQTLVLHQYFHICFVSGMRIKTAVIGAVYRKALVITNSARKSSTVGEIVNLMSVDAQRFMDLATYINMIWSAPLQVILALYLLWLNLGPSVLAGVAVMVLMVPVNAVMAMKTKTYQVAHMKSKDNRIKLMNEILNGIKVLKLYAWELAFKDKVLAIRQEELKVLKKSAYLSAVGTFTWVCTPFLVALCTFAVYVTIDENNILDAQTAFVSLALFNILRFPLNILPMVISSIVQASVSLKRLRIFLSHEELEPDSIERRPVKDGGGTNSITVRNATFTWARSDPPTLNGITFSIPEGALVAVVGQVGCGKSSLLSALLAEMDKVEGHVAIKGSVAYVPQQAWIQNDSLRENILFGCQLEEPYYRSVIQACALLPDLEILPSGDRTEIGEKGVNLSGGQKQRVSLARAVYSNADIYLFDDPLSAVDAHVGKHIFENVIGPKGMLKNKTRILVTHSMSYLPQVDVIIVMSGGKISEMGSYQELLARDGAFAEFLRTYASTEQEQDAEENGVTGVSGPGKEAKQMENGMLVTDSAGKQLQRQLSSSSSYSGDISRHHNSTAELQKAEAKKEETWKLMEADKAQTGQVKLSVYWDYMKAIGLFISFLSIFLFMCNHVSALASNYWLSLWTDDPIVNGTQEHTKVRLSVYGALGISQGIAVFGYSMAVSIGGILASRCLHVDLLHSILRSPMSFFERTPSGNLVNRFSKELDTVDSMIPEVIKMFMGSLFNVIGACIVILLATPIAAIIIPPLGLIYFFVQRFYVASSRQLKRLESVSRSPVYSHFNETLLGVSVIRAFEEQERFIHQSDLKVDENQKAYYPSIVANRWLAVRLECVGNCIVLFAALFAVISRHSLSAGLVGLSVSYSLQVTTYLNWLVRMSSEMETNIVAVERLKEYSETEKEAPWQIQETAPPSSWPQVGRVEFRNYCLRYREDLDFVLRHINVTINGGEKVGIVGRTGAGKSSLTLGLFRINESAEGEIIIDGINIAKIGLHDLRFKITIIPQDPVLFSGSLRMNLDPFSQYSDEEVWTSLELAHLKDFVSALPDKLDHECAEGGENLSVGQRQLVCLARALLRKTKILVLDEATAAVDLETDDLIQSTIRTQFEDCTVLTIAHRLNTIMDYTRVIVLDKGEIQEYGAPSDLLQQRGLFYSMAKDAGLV
Excerpt: as §1, §2
The inhibitory effect of the compounds is quantified by measuring, by flow cytometry, the efflux of an anticancer drug transported by the pump under consideration, i.e. mitoxantrone for P-gp and BCRP and daunorubicin for MRP1. It is compared with that of the reference product, reversin 121. […]

- mechanism of inhibition (P-gp [1]): noncompetitive
- inhibition at 1 h, 10 µM (MRP1): < 10%
SMILES: CC(C)(C)OC(=O)[C@H](CCCCNC(=O)OCc1ccccc1)NC[C@@H]1C[C@@H](OCc2ccccc2)CN1C(=O)OC(C)(C)C [No. 6, N^α-Boc-trans-L-4-Hyp(Bn)-ψ(CH2-NH)-L-Lys(Z)-OtBu]
- IC50 for P-gp compared with that of reversin 121 (P-gp [2]): seven times better
- % pump inhibition at 10 μM of compound, P-gp (P-gp [2]; 10 μM compound, mitoxantrone efflux): 106.9 ± 23.0%
- inhibition at 1 h, 0.12 µM (P-gp [2]; human, probe mitoxantrone, 0.12 μM compound, according to FIG. 3, read-out: efflux inhibition effectiveness): 25%
- inhibition at 1 h, 0.44 µM (P-gp [2]; human, probe mitoxantrone, 0.44 μM compound, according to FIG. 3, read-out: efflux inhibition effectiveness): 75%
- inhibition at 1 h, 10 µM (P-gp [2]; human, probe mitoxantrone, 10 μM compound, according to FIG. 3, read-out: efflux inhibition effectiveness): 100%
- inhibition at 1 h, 0.22 μM (P-gp [2]; human, probe mitoxantrone, 0.22 μm compound, according to FIG. 3, read-out: efflux inhibition effectiveness): 50%
- IC50 (P-gp [2]; mitoxantrone efflux, mathematical adjustment of experimental points): 220 ± 30 nM
- cytotoxicity ([3]; above 10 times the half-maximum-effect concentration): limited
- cytotoxicity ([3]; at 10 times the half-maximum-effect concentration): not toxic
- % pump inhibition at 10 μM of compound, BCRP (BCRP): 42.3 ± 0.8%
